# Laboratory results as given in the supplement of paper PMC4862054.
# What was measured:
# Conditions in all cases: incubation time: 72 h
# [1] = tested on: HDQ-P1; assay: normalised viability (% of control), CellTiter-Blue; higher = more viable cells (100 = DMSO, 0 = benzethonium chloride kill control)
# Procedure, shortened: (§1)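 Each value is normalised viability at a single listed concentration of the series. Breast cancer cell lines in 384-well plates were incubated 72 h with compound and read by CellTiter-Blue fluorescence at 560/590 nm, with vehicle set to 100 and a positive kill control to 0 on every plate.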
# [2] = tested on: DU-4475; assay: as above
# Procedure, shortened: as §1
# [3] = tested on: HCC1937; assay: as above
# Procedure, shortened: as §1
# [4] = tested on: MDA-MB-231; assay: as above
# Procedure, shortened: as §1
# [5] = tested on: BT-549; assay: as above
# Procedure, shortened: as §1
# [6] = tested on: CAL-85-1; assay: as above
# Procedure, shortened: as §1
# [7] = tested on: MDA-MB-453; assay: as above
# Procedure, shortened: as §1
# [8] = tested on: HCC1143; assay: as above
# Procedure, shortened: as §1
# [9] = tested on: CAL-120; assay: as above
# Procedure, shortened: as §1
# [10] = tested on: BT-474; assay: as above
# Procedure, shortened: as §1
# [11] = tested on: MDA-MB-468; assay: as above
# Procedure, shortened: as §1
# [12] = tested on: HCC1599; assay: as above
# Procedure, shortened: as §1
# [13] = tested on: MDA-MB-436; assay: as above
# Procedure, shortened: as §1
# [14] = tested on: SK-BR-3; assay: as above
# Procedure, shortened: as §1
# [15] = tested on: Hs578T; assay: as above
# Procedure, shortened: as §1
# [16] = tested on: CAL-148; assay: as above
# Procedure, shortened: as §1
# [17] = tested on: MFM-223; assay: as above
# Procedure, shortened: as §1
# [18] = tested on: CAL-51; assay: as above
# Procedure, shortened: as §1
# [19] = tested on: HDQ-P1; assay: normalised response (% of control), CellTiter-Glo; higher = more viable cells (100 = DMSO, 0 = benzethonium chloride kill control)
# Procedure, shortened: (§2)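 Breast cancer cell lines (20 µl suspension) were seeded into 384-well plates holding compound at 5 concentrations in 10-fold steps over a compound-specific 10,000-fold range, then incubated 72 h. CellTox Green fluorescence (485/520 nm) was read first, then CellTiter-Glo luminescence after 10 min at room temperature. Each plate was normalised to 0.1 % DMSO (100) and a positive kill control (0). Each value is the normalised signal at a single concentration of the series.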
# [20] = tested on: DU-4475; assay: as above
# Procedure, shortened: as §2
# [21] = tested on: HCC1937; assay: as above
# Procedure, shortened: as §2
# [22] = tested on: MDA-MB-231; assay: as above
# Procedure, shortened: as §2
# [23] = tested on: BT-549; assay: as above
# Procedure, shortened: as §2
# [24] = tested on: CAL-85-1; assay: as above
# Procedure, shortened: as §2
# [25] = tested on: MCF-10A; assay: as above
# Procedure, shortened: as §2
# [26] = tested on: MDA-MB-453; assay: as above
# Procedure, shortened: as §2
# [27] = tested on: HCC1143; assay: as above
# Procedure, shortened: as §2
# [28] = tested on: CAL-120; assay: as above
# Procedure, shortened: as §2
# [29] = tested on: BT-474; assay: as above
# Procedure, shortened: as §2
# [30] = tested on: MDA-MB-468; assay: as above
# Procedure, shortened: as §2
# [31] = tested on: HCC1599; assay: as above
# Procedure, shortened: as §2
# [32] = tested on: MDA-MB-436; assay: as above
# Procedure, shortened: as §2
# [33] = tested on: SK-BR-3; assay: as above
# Procedure, shortened: as §2
# [34] = tested on: Hs578T; assay: as above
# Procedure, shortened: as §2
# [35] = tested on: CAL-148; assay: as above
# Procedure, shortened: as §2
# [36] = tested on: MFM-223; assay: as above
# Procedure, shortened: as §2
# [37] = tested on: CAL-51; assay: as above
# Procedure, shortened: as §2
SMILES,normalised viability [1],normalised viability [2],normalised viability [3],normalised viability [4],normalised viability [5],normalised viability [6],normalised viability [7],normalised viability [8],normalised viability [9],normalised viability [10],normalised viability [11],normalised viability [12],normalised viability [13],normalised viability [14],normalised viability [15],normalised viability [16],normalised viability [17],normalised viability [18],normalised response [19],normalised response [20],normalised response [21],normalised response [22],normalised response [23],normalised response [24],normalised response [25],normalised response [26],normalised response [27],normalised response [28],normalised response [29],normalised response [30],normalised response [31],normalised response [32],normalised response [33],normalised response [34],normalised response [35],normalised response [36],normalised response [37]
CCS(=O)(=O)c1cccc(-c2cc(C(=O)NC3CCN(C)CC3)c(C)c3[nH]c4ncc(C)cc4c23)c1 [TAK-901] (0.1 nM),111%,85.1%,105%,104%,112%,83.7%,96.1%,94.9%,87.2%,76.6%,95.9%,87%,108%,92%,109%,102%,96.7%,90.9%,98.9%,106%,91.8%,101%,106%,103%,109%,117%,108%,97.4%,101%,100%,108%,93.8%,113%,111%,101%,106%,122%
CC(C)(C)c1cc(NC(=O)Nc2ccc(-c3cn4c(n3)sc3cc(OCCN5CCOCC5)ccc34)cc2)no1 [Quizartinib] (0.1 nM),74.7%,117%,109%,105%,92.8%,89.4%,113%,99.6%,99.7%,115%,92.3%,89.4%,98.1%,90.9%,120%,105%,81.8%,103%,99.5%,104%,103%,106%,96.2%,110%,101%,105%,100%,103%,108%,107%,112%,101%,109%,99.8%,110%,108%,87.7%
COC(=O)C[C@](O)(CCCC(C)(C)O)C(=O)O[C@@H]1C(OC)=C[C@]23CCCN2CCc2cc4c(cc2[C@H]13)OCO4 [Omacetaxine] (1 nM),84.7%,93.6%,96.5%,97.3%,95.4%,90.6%,91.6%,91.7%,82%,101%,95.2%,78.4%,91.1%,97.3%,106%,107%,90.3%,96.3%,104%,96%,98.3%,104%,92.1%,101%,108%,121%,109%,99.8%,106%,108%,88.4%,97.1%,108%,101%,110%,103%,79.9%
